Measurements reported in the C3SDB collision cross section collection.

How the values were obtained:
[1] = instrument: DT, single field, calibrated with Agilent tune mix (Agilent)
[2] = instrument: DT, single field, calibrated with Agilent tune mix (Agilent); remark: listed apart in the source

Compound: CCCCCCCCCCCCCCCCCC(=O)N[C@@H](CO)[C@H](O)CCCCCCCCCCCCCCC [Cer(36:0)]
- collision cross section (N2) ([1]; [M+HCOO]-): 259 Å²
- collision cross section (N2) ([1]; [M+H]+): 262 Å²
- collision cross section (N2) ([1]; [M+Na]+): 267.7 Å²
- collision cross section (N2) ([1]; [M-H]-): 249 Å²

Compound: CCCCCCCCCCCCC=CC[C@@H](O)[C@H](CO)NC(=O)CCCCCCCCCCCCCCCCCC [Cer(37:1)]
- collision cross section (N2) ([1]; [M+HCOO]-): 258.9 Å²
- collision cross section (N2) ([1]; [M+H]+): 263.4 Å²
- collision cross section (N2) ([1]; [M+Na]+): 269.8 Å²

Compound: CCCCCCCCCCCCCCCCCCCC(=O)N[C@@H](CO)[C@H](O)CCCCCCCCCCCCCCC [Cer(38:0)]
- collision cross section (N2) ([1]; [M+HCOO]-): 265.2 Å²
- collision cross section (N2) ([1]; [M+H]+): 267.9 Å²

Compound: CCCCCCCCCCCCC=CC[C@@H](O)[C@H](CO)NC(=O)CC=CCCCCCCCCCCCCCCCC [Cer(38:2)]
- collision cross section (N2) ([1]; [M+H]+): 262.4 Å²
- collision cross section (N2) ([1]; [M+Na]+): 262.1 Å²

Compound: CCCCCCCCCCCCC=CC[C@@H](O)[C@H](CO)NC(=O)CC=CCCCCCCCCCCCCCCCCCC [Cer(40:2)]
- collision cross section (N2) ([1]; [M+H]+): 270.3 Å²
- collision cross section (N2) ([1]; [M+Na]+): 271.4 Å²
- collision cross section (N2) ([1]; [M-H]-): 259.8 Å²

Compound: CCCCCCCCCCCCC=CC[C@@H](O)[C@H](CO)NC(=O)CCCCCCCCCCCCCCCCCCCCCCCC [Cer(43:1)]
- collision cross section (N2) ([1]; [M+H]+): 282 Å²

Compound: CCCCCCCCCCCCC=CC[C@@H](O)[C@H](CO)NC(=O)CC=CCCCCCCCCCCCCCCCCCCCCCC [Cer(44:2)]
- collision cross section (N2) ([1]; [M+H]+): 283.5 Å²

Compound: CCCCCCCC/C=C\CCCCCCCCCC(=O)O[C@@H](CO)COC(=O)CCCCCCC/C=C\CCCCCCCC [DG(38:2)]
- collision cross section (N2) ([1]; [M+NH4]+): 271.6 Å²

Compound: CCCCC/C=C\C/C=C\CCCCCCCCCC(=O)O[C@@H](CO)COC(=O)CCCCCCCCCCCCCCCCCCC [DG(40:2)]
- collision cross section (N2) ([1]; [M+NH4]+): 277.7 Å²

Compound: CCCCC/C=C\C/C=C\CCCCCCCC(=O)OC[C@@H](O)COP(=O)([O-])OCC[N+](C)(C)C [LPC(18:2)]
- collision cross section (N2) ([1]; [M+HCOO]-): 235.2 Å²
- collision cross section (N2) ([1]; [M+H]+): 226.8 Å²
- collision cross section (N2) ([1]; [M+Na]+): 231.9 Å²

Compound: CCCCCCCCCCCCCCCCC(=O)OC[C@@H](O)COP(=O)(O)OCCN [LPE(17:0)]
- collision cross section (N2) ([1]; [M+H]+): 217.1 Å²
- collision cross section (N2) ([1]; [M-H]-): 210.1 Å²

Compound: CCCCC/C=C\C/C=C\CCCCCCCCCC(=O)OC[C@@H](O)COP(=O)(O)OCCN [LPE(20:2)]
- collision cross section (N2) ([1]; [M-H]-): 216.4 Å²

Compound: CCCCCCCCCCCCCCCCC(=O)OC[C@@H](O)COP(=O)(O)O[C@H]1C(O)C(O)C(O)[C@@H](O)C1O (stereo partly specified) [LPI(17:0)]
- collision cross section (N2) ([1]; [M-H]-): 232.6 Å²

Compound: CCCCCCCCCCCCCCCC(=O)OC[C@@H](O)COP(=O)(O)OC[C@H](N)C(=O)O [LPS(16:0)]
- collision cross section (N2) ([1]; [M-H]-): 216.4 Å²

Compound: CCCCCCCC/C=C\CCCCCCCCCC(=O)OC[C@@H](O)COP(=O)(O)OC[C@H](N)C(=O)O [LPS(20:1)]
- collision cross section (N2) ([1]; [M+H]+): 231.8 Å²

Compound: CCCCC/C=C\C/C=C\C/C=C\CCCCCCC(=O)OC[C@@H](O)COP(=O)(O)OC[C@H](N)C(=O)O [LPS(20:3)]
- collision cross section (N2) ([1]; [M-H]-): 221.5 Å²

Compound: CCCCC/C=C\C/C=C\C/C=C\C/C=C\CCCCCC(=O)O[C@H](COC(=O)CCCCCCCCCCCCCC)COP(=O)([O-])OCC[N+](C)(C)C [PC(37:4)]
- collision cross section (N2) ([1]; [M+H]+): 290.4 Å²

Compound: CCCCCCCCCCCCCCCC/C=C\OC[C@H](COP(=O)([O-])OCC[N+](C)(C)C)OC(=O)CCCCCCCCCCCCCCC [PC(p34:0)]
- collision cross section (N2) ([1]; [M+H]+): 288.3 Å²

Compound: CCCCC/C=C\C/C=C\C/C=C\C/C=C\CCCCCC(=O)O[C@H](CO/C=C\CCCCCCCCCCCCCCCC)COP(=O)([O-])OCC[N+](C)(C)C [PC(p40:4)]
- collision cross section (N2) ([1]; [M+H]+): 300.9 Å²

Compound: CCCCCCCCCCCCCC/C=C\OC[C@H](COP(=O)(O)OCCN)OC(=O)CCCCCCCCCCCCCCCCC [PE(p34:0)]
- collision cross section (N2) ([1]; [M+H]+): 274.6 Å²

Compound: CCCCCCCCCCCCCCCC/C=C\OC[C@H](COP(=O)(O)OCCN)OC(=O)CCCCCCCCCCCCCCCCC [PE(p36:0)]
- collision cross section (N2) ([1]; [M+H]+): 281.6 Å²
- collision cross section (N2) ([1]; [M-H]-): 268.4 Å²

Compound: CCCCCCCC/C=C\CCCCCCCCCC(=O)O[C@H](COC(=O)CCCCCCCCCCCCCC)COP(=O)(O)O[C@H]1C(O)C(O)C(O)[C@@H](O)C1O (stereo partly specified) [PI(35:1)]
- collision cross section (N2) ([1]; [M+NH4]+): 298.1 Å²
- collision cross section (N2) ([1]; [M-H]-): 286.9 Å²

Compound: CCCCC/C=C\C/C=C\CCCCCCCCCCCC(=O)O[C@H](COC(=O)CCCCCCCCCCCC)COP(=O)(O)O[C@H]1C(O)C(O)C(O)[C@@H](O)C1O (stereo partly specified) [PI(35:2)]
- collision cross section (N2) ([1]; [M+NH4]+): 295.6 Å²
- collision cross section (N2) ([1]; [M-H]-): 285.3 Å²

Compound: CCCCC/C=C\C/C=C\CCCCCCCCCCCC(=O)O[C@H](COC(=O)CCCCCCC/C=C\CCCCC)COP(=O)(O)O[C@H]1C(O)C(O)C(O)[C@@H](O)C1O (stereo partly specified) [PI(37:3)]
- collision cross section (N2) ([1]; [M+NH4]+): 301.4 Å²
- collision cross section (N2) ([1]; [M+Na]+): 298.9 Å²
- collision cross section (N2) ([1]; [M-H]-): 290.1 Å²

Compound: CC/C=C\C/C=C\C/C=C\C/C=C\CCCCC(=O)OC[C@H](COP(=O)(O)O[C@H]1C(O)C(O)C(O)[C@@H](O)C1O)OC(=O)CCCCCCCCCCCCCCCCCC (stereo partly specified) [PI(37:4)]
- collision cross section (N2) ([1]; [M+H]+): 298.9 Å²
- collision cross section (N2) ([1]; [M+NH4]+): 300.2 Å²
- collision cross section (N2) ([1]; [M+Na]+): 297.6 Å²

Compound: CCCCCC/C=C\CCCCCCCC(=O)OC[C@H](COP(=O)(O)O[C@H]1C(O)C(O)C(O)[C@@H](O)C1O)OC(=O)CCCCCCCCCCCCCCCCCCCCC (stereo partly specified) [PI(38:1)]
- collision cross section (N2) ([1]; [M-H]-): 296.1 Å²

Compound: CCCCCCCC/C=C\CCCCCCCCCC(=O)O[C@H](COC(=O)CCCCCCCCCCCCC)COP(=O)(O)OC[C@H](N)C(=O)O [PS(34:1)]
- collision cross section (N2) ([1]; [M+H]+): 280 Å²
- collision cross section (N2) ([1]; [M-H]-): 273.1 Å²

Compound: O=c1ccn([C@@H]2O[C@H](COP(=O)(O)OP(=O)(O)O)[C@@H](O)[C@H]2O)c(=O)[nH]1 [Uridine 5'-diphosphate]
- collision cross section (N2) ([2]; [M+H]+): 176.5 Å²

Compound: O=C(O)[C@H]1O[C@H](OP(=O)(O)OP(=O)(O)OC[C@H]2O[C@@H](n3ccc(=O)[nH]c3=O)[C@H](O)[C@@H]2O)[C@H](O)[C@@H](O)[C@@H]1O [Uridine 5'-diphosphoglucuronic acid]
- collision cross section (N2) ([2]; [M+Na-2H]-): 201.6 Å²
- collision cross section (N2) ([2]; [M+Na]+): 210.1 Å²

Compound: COc1cc(C(=O)O)ccc1O [Vanillic acid]
- collision cross section (N2) ([2]; [M+H]+): 136.2 Å²

Compound: O=c1[nH]c(=O)c2ncn([C@@H]3O[C@H](COP(=O)(O)O)[C@@H](O)[C@H]3O)c2[nH]1 [Xanthylic acid]
- collision cross section (N2) ([2]; [M+H]+): 174.7 Å²
- collision cross section (N2) ([2]; [M-H]-): 164.74 Å²

Compound: O=P(O)(O)O[C@H]1O[C@H](CO)[C@@H](O)[C@H](O)[C@H]1O [alpha-D-Glucose 1-phosphate]
- collision cross section (N2) ([2]; [M+Na]+): 158 Å²
- collision cross section (N2) ([2]; [M-H]-): 145.48 Å²

Compound: CC(=O)NC(CCC(N)=O)C(=O)O [alpha-N-Acetyl-L-glutamine]
- collision cross section (N2) ([2]; [M+Na]+): 144.2 Å²
- collision cross section (N2) ([2]; [M-H]-): 136.83 Å²

Compound: Nc1ccn([C@H]2C[C@H](O)[C@@H](COP(=O)(O)OP(=O)(O)OP(=O)(O)O)O2)c(=O)n1 [dCTP]
- collision cross section (N2) ([2]; [M+H]+): 184.9 Å²

Compound: N[C@@H](CCC(=O)N[C@@H](Cc1ccccc1)C(=O)O)C(=O)O [gamma-Glutamylphenylalanine]
- collision cross section (N2) ([2]; [M+H]+): 168.2 Å²

Compound: CC(C)[C@H](NC(=O)CC[C@H](N)C(=O)O)C(=O)O [gamma-Glutamylvaline]
- collision cross section (N2) ([2]; [M+H]+): 160.1 Å²

Compound: O=C(O)Cc1ccc(O)cc1 [p-Hydroxyphenylacetic acid]
- collision cross section (N2) ([2]; [M-H]-): 126.65 Å²
